Measured values published in patent publication US5045543A, “5-amino or substituted amino 1,2,3-triazoles useful as antimetastatic agents” (Merck & Co., Inc., priority 1989, dated 1991).

What was measured:
LTA4 hydrolase = experiment: Direct inhibition of LTA4 hydrolase; assay type: biochemical
[1] = tested on: PMT-6 fibroscaroma tumors; experiment: Antimetastatic activity against PMT-6 fibrosarcoma tumors in mice (metastases in lung, primary tumor weight); assay type: in vivo, Black Charles River female mice (C57BL-6j); conditions: for range of primary tumor weights: control 3.1-8.4 g; for average weight of the primary tumors: mice surviving >17 days, control 6.0 g; for Number of Metastases, size 0.01-0.1 mm: control 24; for Number of Metastases, size <0.01 mm: control 102; for Number of Metastases, size >0.01 mm: size range >0.01 mm (so in the source)
Experimental: Black Charles River female mice (C57BL-6j) were injected in the flank muscle on day 1 with a cell suspension obtained from mincing PMT-6 fibroscaroma tumors. This highly metastatic tumor produces a large number of metastases in the lung during development of the primary tumor, so that the efficacy of potential antimetastatic agents can be contrasted with their ability to inhibit primary tumor growth in the same model. The mice were in 4 groups of 6 and were dosed daily with a 0.5% methylcellulose suspension of 5-amino-1-(4-[4-chlorobenzoyl]-3,5-dichlorobenzyl)-1,2,3-triazole-4-carboxamide, the active agent, given by gavage. Fresh drug suspensions were prepared daily. The doses, in 250 μL, were 0, 100, 250, and 500 mg/kg.
The average weights of the primary tumors retrieved from mice who survived longer than 17 days were: Control 6.0 g. (3.1-8.4 g); 100 mg/kg, 2.9 g. (2.1-5.6 g.); 250 mg/kg, 3.0 g (1.3-4.6 g.); and 500 mg/kg, 3.3 g. (2.0-6.5 g.).
The lungs of the mice were sectioned at intervals throughout the entire lung after fixing in 10% formalin, and the sections stained with H&E. The metastases found ranged from micrometases of just a few cells to enormous ones that could be easily seen without a microscope.

[2] = tested on: Normal Human Epidermal Keratinocytes (NHEK); experiment: Inhibition of growth of Normal Human Epidermal Keratinocytes (NHEK); assay type: cell-based; conditions: for inhibition at 0.5 µg/mL / inhibition at 1 µg/mL / inhibition at 2 µg/mL: Homo sapiens, NHEK
Experimental: The inhibition of PRPP biosynthesis by Compound A and analogs supported the claimed use of the compounds as antiproliferative agents, since this inhibition should prevent all de novo and salvage biosynthesis of purine and pyrimidine nucleotides. […] The data from NHEK's is particularly important since it is the overproliferation of these cells that occurs in psoriasis.
In these experiments Murine keratinocyte transformed cell line PAPp26 was cultured in Dulbecco's modified Eagle's medium with 10% fetal calf serum at 37° C., 5% CO2. Each well of a 96 well plate was seeded with 2000 cells in 200 μl of each drug dilution in duplicate. A plate was stopped and fixed for each time point, stained with Giemsa and then read in a Titertek plate reader at 650 nm, and the absorbances were calibrated with known cell numbers on control plates. NHEK's were obtained from Clonetics Corporation at the secondary stage. Antiproliferative assays were done as for the murine keratinocytes. Media (KGM) without serum was supplied by Clonetics also. Normal Human Fibroblasts and MDBK cells were grown under the same conditions except that MDBK cells were grown at 41° C.

rat PMN's = experiment: Eicosanoid production in rat PMN's; assay type: cell-based; conditions: 1 μg/ml
[3] = tested on: Maden Darby Bovine Kidney (MDBK) cells; experiment: 3H-Hypoxanthine uptake (incorporation) into MDBK cells; assay type: cell-based; conditions: 1.0 μg/ml; for inhibition at 1 µg/mL: Bos taurus, MDBK
Experimental: Compound A and analogs are capable of inhibiting nucleotide biosynthesis in a variety of mammalian cell types.
Confluent cells were incubated in Eagles Minimal Essential media for 2.5 hours, then incubated with Phosphate buffered saline +Ca +Mg for 30 minutes, and then they were incubated with or without 1 μg/ml Compound A for 15 minutes. Media containing 100 μM 8-^3 H-hypoxanthine with or without drug was incubated for the time shown with the cells after which they were quenched by immersion in ice cold buffer. The DPM measurements were made on aliquots of neutralized perchloric acid supernatants.

5-lipoxygenase = experiment: Direct inhibition of 5-lipoxygenase; assay type: biochemical

SMILES: NC(=O)c1nnn(Cc2cc(Cl)c(C(=O)c3ccc(Cl)cc3)c(Cl)c2)c1N [Compound A, 5-amino-1-(4-(4-chlorobenzoyl)-3,5-dichlorobenzyl)-1,2,3-triazole-4-carboxamide]
- direct inhibition of LTA4 hydrolase (LTA4 hydrolase): no evidence of direct inhibition
- range of primary tumor weights ([1]; 100 mg/kg by gavage daily): 2.1 to 5.6 g
- average weight of the primary tumors ([1]; 100 mg/kg by gavage daily): 2.9 g
- range of primary tumor weights ([1]; 250 mg/kg by gavage daily): 1.3 to 4.6 g
- average weight of the primary tumors ([1]; 250 mg/kg by gavage daily): 3.0 g
- range of primary tumor weights ([1]; 500 mg/kg by gavage daily): 2.0 to 6.5 g
- average weight of the primary tumors ([1]; 500 mg/kg by gavage daily): 3.3 g
- effect on the primary tumor ([1]; 100, 250, 500 mg/kg by gavage): there may be a small effect of the drug on the primary tumor
- effect on number of lung metastases ([1]; at even the lowest dose (100 mg/kg/d oral)): a large drop in the number of metastases at even the lowest dose
- antimetastatic activity ([1]; mouse, in vivo): has exhibited such antimetastatic activity
- Number of Metastases, size 0.01-0.1 mm ([1]; oral 100 mg/kg/d): 0
- Number of Metastases, size <0.01 mm ([1]; oral 100 mg/kg/d): 6
- Number of Metastases, size >0.01 mm ([1]; oral 100 mg/kg/d): 0
- Number of Metastases, size 0.01-0.1 mm ([1]; oral 250 mg/kg/d): 3
- Number of Metastases, size <0.01 mm ([1]; oral 250 mg/kg/d): 9
- Number of Metastases, size >0.01 mm ([1]; oral 250 mg/kg/d): 0
- Number of Metastases, size 0.01-0.1 mm ([1]; oral 500 mg/kg/d): 3
- Number of Metastases, size <0.01 mm ([1]; oral 500 mg/kg/d): 6
- Number of Metastases, size >0.01 mm ([1]; oral 500 mg/kg/d): 1
- NHEK growth, ABS-background (650 nm) ([2]; 0.5 μg/ml, day 4, control .090): .085
- NHEK growth, ABS-background (650 nm) ([2]; 0.5 μg/ml, day 5, control .190): .115
- NHEK growth, ABS-background (650 nm) ([2]; 0.5 μg/ml, day 7, control .390): .190
- NHEK growth, ABS-background (650 nm) ([2]; 1.0 μg/ml, day 4, control .090): .040
- NHEK growth, ABS-background (650 nm) ([2]; 1.0 μg/ml, day 5, control .190): .050
- NHEK growth, ABS-background (650 nm) ([2]; 1.0 μg/ml, day 7, control .390): .120
- NHEK growth, ABS-background (650 nm) ([2]; 2.0 μg/ml, day 4, control .090): .005
- NHEK growth, ABS-background (650 nm) ([2]; 2.0 μg/ml, day 5, control .190): .010
- NHEK growth, ABS-background (650 nm) ([2]; 2.0 μg/ml, day 7, control .390): .050
- inhibition at 0.5 µg/mL ([2]; 96 h, 0.5 μg/ml, day 4): 6%
- inhibition at 1 µg/mL ([2]; 96 h, 1.0 μg/ml, day 4): 56%
- inhibition at 2 µg/mL ([2]; 96 h, 2.0 μg/ml, day 4): 94%
- inhibition at 0.5 µg/mL ([2]; 120 h, 0.5 μg/ml, day 5): 40%
- inhibition at 1 µg/mL ([2]; 120 h, 1.0 μg/ml, day 5): 74%
- inhibition at 2 µg/mL ([2]; 120 h, 2.0 μg/ml, day 5): 95%
- inhibition at 0.5 µg/mL ([2]; 168 h, 0.5 μg/ml, day 7): 51%
- inhibition at 1 µg/mL ([2]; 168 h, 1.0 μg/ml, day 7): 70%
- inhibition at 2 µg/mL ([2]; 168 h, 2.0 μg/ml, day 7): 87%
- inhibition of growth of NHEK ([2]; approximately 1.0 μg/ml): substantial inhibition
- inhibition of 5-HETE production (rat PMN's): inhibit
- inhibition of HHT production (rat PMN's): inhibit
- inhibition of LTB4 production (rat PMN's): inhibit
- 3H-hypoxanthine incorporation into MDBK cells ([3]; Eagles Minimal Essential media): substantially reduced
- 3H-Hypoxanthine Uptake, DPM ([3]; 10 min, control 87000): 36000 DPM
- 3H-Hypoxanthine Uptake, DPM ([3]; 20 min, control 140000): 40000 DPM
- 3H-Hypoxanthine Uptake, DPM ([3]; 30 min, control 190000): 40000 DPM
- inhibition at 1 µg/mL ([3]; 10 min): 59%
- inhibition at 1 µg/mL ([3]; 20 min): 71%
- inhibition at 1 µg/mL ([3]; 30 min): 79%
- direct inhibition of 5-lipoxygenase (5-lipoxygenase): no evidence of direct inhibition
